Usually Ki stands for the equilibrium dissociation constant of an inhibitor or competing ligand from its target. Read a low Ki as a stronger hold on the target.

A short description of this assay: Displacement of [3H]Ro151788 from GABA-A receptor in Wistar rat cerebellar membrane after 1 hr by liquid scintillation counting. Type of assay: cell membranes, Cerebellum. In general terms: Loss of bound radioactivity is the signal in a displacement assay; it reports binding, not function.

`CCc1ccc2[nH]cc(C(=O)NCCF)c(=O)c2c1` registered an inhibition constant Ki of 3.6 nM.
Compound `O=C(NCCCF)c1c[nH]c2ccc(Br)cc2c1=O` showed a Ki of 1.3 nM.
Then `O=C(NCCF)c1c[nH]c2ccc(Cc3ccccc3)cc2c1=O`, with 0.7 nM.

Values taken from ChEMBL document CHEMBL1208702, “Use of 2-[(18)F]fluoroethylazide for the Staudinger ligation - Preparation and characterisation of GABA(A) receptor binding 4-quinolones” (Bioorg Med Chem Lett, 2010).
